For data set [1], the system named is TGF-β1 induced total collagen accumulation in MRC-5 cells. In words: Sircol collagen assay: inhibition of TGF-β1-induced total collagen accumulation. The format is cell-based, human. To be noted: for IC50: Homo sapiens, MRC5, 10 ng/mL TGF-β1, 48 h, Sircol collagen assay; for SI, selectivity index (SI = CC50/IC50): MRC-5 cells. As for the experimental part:
Higher SI values indicates better safety profile.
MRC-5 cells in 1 × 10^5 cells/mL density were seeded in TC treated 96-well plates and allowed to reach confluence for 48 h. The cells were then starved using MEM-NEAA containing 0.2% BSA for 24 h. After starvation, the medium was changed to MEM-NEAA supplemented with 0.2% BSA, 100 μM L-Proline, 100 μM Ascorbic acid, with or without 10 ng/mL TGF-β1 (Peprotech) in the presence of vehicle or different concentrations of compounds. After 48 h incubation, the MRC-5 cells were washed with phosphate buffered saline (PBS) and fixed in −20 °C precooled methanol for 10 min. The cells were than washed with PBS before incubation in 0.1% PSR staining solution (0.1% Sirus red in saturated water solution of picric acid) for 1 h. The staining solution was then removed and the cells were washed with 0.1% acetic acid for three times. 200 μL of 0.1 mol/L sodium hydroxide solution were added to each well and the plates were placed on a rocking platform for 1 h. The optical density (OD) values at 550 nm were determined with an Infinite 2000 spectrophotometer.

Data set [2] is described as follows: Cytotoxicity assay (CCK-8). To be noted: human, MRC-5 cells (human fetal lung fibroblasts).
Procedure: Cytotoxicity of all compounds were also determined against MRC-5 cells, so as to calculate selectivity index (SI, CC50/IC50).
MRC-5 cells in passage between 21 to 26 were used for experiments.
MRC-5 cells were incubated with different concentrations of compounds for 48 h, and then 10 μL of CCK-8 solution were added to each well. The cells were incubated at 37 °C for another 3 h before determining the OD values at 492 nm. DMSO at 0.1% v/v final concentration was used to solubilize the test compounds, except for compound 3b, 3c, and 3e, where 1% v/v DMSO was used to ensure complete solubilization.
The subject of a further data set is MRC-5 fibroblasts. Briefly: Scratch (wound healing) assay, TGF-β1-induced fibroblast migration. In kind it is cell-based, human. Particulars: 1000 μM, 10 ng/mL TGF-β1, 24 h (TGF-β1 alone 85.0%). The method, then: Fibroblast migration is the key event in pulmonary fibrogenesis. […] Inhibition of lung fibroblasts migration is a promising potential therapeutic target for IPF. We performed wound healing assay to investigate the inhibitory effect of 3f and matrine against fibroblast migration (Figure 7).
MRC-5 cells were seeded on 6-well plates and allowed to reach confluence for 48 h. The cell monolayer was gently scratched with a 1 mL pipette tip across the center of the well. After scratching, the cells were washed twice with medium to remove detached cells. The cells were then treated with or without 10 ng/mL TGF-β1 in the presence of vehicle or 10 μM 3f for 24 h. The gap area in wound region was quantitatively evaluated using ImageJ [30] and MRI wound healing tool plugin [31].

Usually IC50 stands for the point on the concentration scale where inhibition reaches its midpoint. A high value points to weaker potency in that assay. By CC50 is commonly meant the concentration at which the toxic effect on the cells reaches its halfway point. The low end stands for greater toxicity to the cells, the high end for lower toxicity to the cells.

In the case of `O=C1CC(n2ccc3ccc([N+](=O)[O-])cc32)C[C@@H]2[C@H]3CCCN4CCC[C@@H](CN12)[C@@H]34` (stereo partly shown) [3m, 13-(6-nitro-1H-indol-1-yl)-matrine], in data set [1], the midpoint of inhibition, the IC50, lay at 19.3 ± 2.2 µM and the “SI, selectivity index (SI = CC50/IC50)” value is 2.8. Also, in data set [2], the half-maximal cytotoxic concentration (CC50) at 48 h stood at 53.3 ± 1.9 µM.

In the case of `COc1ccc2c(ccn2C2CC(=O)N3C[C@@H]4CCCN5CCC[C@@H]([C@H]45)[C@H]3C2)c1` (stereo partly shown) [3e, 13-(5-methoxy-1H-indol-1-yl)-matrine], in data set [1], half-maximal inhibition (IC50) required 68.1 ± 5.5 µM and the “SI, selectivity index (SI = CC50/IC50)” value amounted to 1.9. The molecule also yielded a CC50 at 48 h in data set [2] of 128 ± 1.4 µM.

Take `O=C1CCC[C@@H]2[C@H]3CCCN4CCC[C@@H](CN12)[C@@H]34` [Matrine]: in data set [1], 878 ± 68 µM corresponded to half-maximal inhibition (IC50) and the “SI, selectivity index (SI = CC50/IC50)” value is reported as 2.8. This molecule also came in with a CC50 at 48 h in data set [2] of 2470 ± 103 µM. Further, in the data set with MRC-5 fibroblasts, the “closure of wound area over 24 h period” value is 56.6%.

In the case of `Cc1cn(C2CC(=O)N3C[C@@H]4CCCN5CCC[C@@H]([C@H]45)[C@H]3C2)c2ccccc12` (stereo partly shown) [3b, 13-(3-methyl-1H-indol-1-yl)-matrine], in data set [1], the concentration for half-maximal inhibition (IC50) came to 39 ± 0.6 µM and the “SI, selectivity index (SI = CC50/IC50)” value was 2.4. This molecule also came in with a CC50 at 48 h in data set [2] of 95.1 ± 6.5 µM.

Turning to `Cc1ccc(=O)n(-c2ccccc2)c1` [Pirfenidone, reference compound], in data set [1], the midpoint of inhibition, the IC50, lay at 1320 ± 98 µM and the “SI, selectivity index (SI = CC50/IC50)” value turned out to be 3.1. In addition, in data set [2], the cytotoxic concentration (CC50) at 48 h was 4160 ± 239 µM.

As to `O=C1CC(n2ccc3c([N+](=O)[O-])cccc32)C[C@@H]2[C@H]3CCCN4CCC[C@@H](CN12)[C@@H]34` (stereo partly shown) [3d, 13-(4-nitro-1H-indol-1-yl)-matrine], in data set [1], half-maximal inhibition (IC50) required 4.3 ± 0.4 µM and the “SI, selectivity index (SI = CC50/IC50)” value is 7.6. Also, the CC50 at 48 h in data set [2] amounted to 32.8 ± 2.7 µM.

With `O=C1CC(n2ccc3ccccc32)C[C@@H]2[C@H]3CCCN4CCC[C@@H](CN12)[C@@H]34` (stereo partly shown) [3a, 13-(1H-indol-1-yl)-matrine], in data set [1], the IC50 came to 28.3 ± 3.9 µM and the “SI, selectivity index (SI = CC50/IC50)” value is on record as 3.8. Moreover, the CC50 at 48 h in data set [2] was 107 ± 5.9 µM.

Regarding `O=C1CC(N2CCCC2)C[C@@H]2[C@H]3CCCN4CCC[C@@H](CN12)[C@@H]34` (stereo partly shown) [2c, 13-(pyrrolidine-1-yl)-matrine], in data set [1], the IC50 worked out at 256 ± 22.1 µM and the “SI, selectivity index (SI = CC50/IC50)” value is recorded as 2.6. In data set [2], this molecule had a CC50 at 48 h of 676 ± 49.1 µM.

Consider `O=C1CC(n2ccc3cc([N+](=O)[O-])ccc32)C[C@@H]2[C@H]3CCCN4CCC[C@@H](CN12)[C@@H]34` (stereo partly shown) [3i, 13-(5-nitro-1H-indol-1-yl)-matrine], for which, in data set [1], the IC50 amounted to 14.5 ± 1 µM and the “SI, selectivity index (SI = CC50/IC50)” value was found to be 4.5. The molecule also registered a CC50 at 48 h in data set [2] of 65.4 ± 3.1 µM.

Regarding `O=C1CC(N2CCOCC2)C[C@@H]2[C@H]3CCCN4CCC[C@@H](CN12)[C@@H]34` (stereo partly shown) [2d, 13-morpholinocyclohexane-matrine], in data set [1], 138 ± 9.8 µM corresponded to half-maximal inhibition (IC50) and the “SI, selectivity index (SI = CC50/IC50)” value is listed as 3.7. This molecule yielded a CC50 at 48 h in data set [2] of 507 ± 25.3 µM.

Consider `O=C1CC(n2ccc3ccc(F)cc32)C[C@@H]2[C@H]3CCCN4CCC[C@@H](CN12)[C@@H]34` (stereo partly shown) [3k, 13-(6-fluoro-1H-indol-1-yl)-matrine], for which, in data set [1], the midpoint of inhibition, the IC50, lay at 23.1 ± 5.3 µM and the “SI, selectivity index (SI = CC50/IC50)” value worked out at 3.4. The molecule further came in with a CC50 at 48 h in data set [2] of 78.1 ± 3.4 µM.

As to `O=C1CC(n2ccc3ccncc32)C[C@@H]2[C@H]3CCCN4CCC[C@@H](CN12)[C@@H]34` (stereo partly shown) [3n, 13-(1H-pyrrolo[2,3-c]pyridin-1-yl)-matrine], in data set [1], the IC50 worked out at 69.5 ± 8.2 µM and the “SI, selectivity index (SI = CC50/IC50)” value came out at 1.2. The CC50 at 48 h in data set [2] is 84.2 ± 2.2 µM.

Turning to `O=C1CC(n2ccc3ccc(Cl)cc32)C[C@@H]2[C@H]3CCCN4CCC[C@@H](CN12)[C@@H]34` (stereo partly shown) [3l, 13-(6-chloro-1H-indol-1-yl)-matrine], in data set [1], the IC50 is 27 ± 1.4 µM and the “SI, selectivity index (SI = CC50/IC50)” value was found to be 1.7. Also, the 50% cytotoxic concentration (CC50) at 48 h in data set [2] is 45.8 ± 1.1 µM.

Consider `COc1cccc2c1ccn2C1CC(=O)N2C[C@@H]3CCCN4CCC[C@@H]([C@H]34)[C@H]2C1` (stereo partly shown) [3c, 13-(4-methoxy-1H-indol-1-yl)-matrine], for which, in data set [1], the IC50 amounted to 44.7 ± 3.6 µM and the “SI, selectivity index (SI = CC50/IC50)” value was 1.3. Also, the CC50 at 48 h in data set [2] turned out to be 56.7 ± 3.9 µM.

As to `CNC1CC(=O)N2CC3CCCN4CCCC(C34)C2C1` (stereo not shown) [2a, 13-methylamino-matrine], in data set [1], the midpoint of inhibition, the IC50, lay at 65.3 ± 4.2 µM and the “SI, selectivity index (SI = CC50/IC50)” value was 9.3. In data set [2], this molecule gave a CC50 at 48 h of 609 ± 29.8 µM.

On to `O=C1CC(n2ccc3cc(Br)ccc32)C[C@@H]2[C@H]3CCCN4CCC[C@@H](CN12)[C@@H]34` (stereo partly shown) [3g, 13-(5-bromo-1H-indol-1-yl)-matrine], for which, in data set [1], the half-inhibitory concentration (IC50) was 6.5 ± 1.2 µM and the “SI, selectivity index (SI = CC50/IC50)” value worked out at 2.8. In data set [2], this molecule registered a 50% cytotoxic concentration (CC50) at 48 h of 18.2 ± 0.6 µM.

On to `CN(C)C1CC(=O)N2CC3CCCN4CCCC(C34)C2C1` (stereo not shown) [2b, 13-dimethylamino-matrine], for which, in data set [1], the 50% inhibitory concentration (IC50) stood at 92.1 ± 1.9 µM and the “SI, selectivity index (SI = CC50/IC50)” value worked out at 6.8. In data set [2], the CC50 at 48 h worked out at 624 ± 13.2 µM.

`O=C1CC(n2ccc3cnccc32)CC2C3CCCN4CCCC(CN12)C34` (stereo not shown) [3j, 13-(1H-pyrrolo[3,2-c]pyridin-1-yl)-matrine]: in data set [1], the midpoint of inhibition, the IC50, lay at 16.7 ± 3.5 µM and the “SI, selectivity index (SI = CC50/IC50)” value was 6.8. The molecule further showed a CC50 at 48 h in data set [2] of 114 ± 5.9 µM.

`N#Cc1ccc2c(ccn2C2CC(=O)N3C[C@@H]4CCCN5CCC[C@@H]([C@H]45)[C@H]3C2)c1` (stereo partly shown) [3h, 13-(5-cyano-1H-indol-1-yl)-matrine]: in data set [1], the IC50 amounted to 72.1 ± 4 µM and the “SI, selectivity index (SI = CC50/IC50)” value is recorded as 2.1. Also, it took 154 ± 11 µM to reach half-maximal cytotoxicity in data set [2] (CC50 at 48 h).

These data come from PMC6470603, “Design and Synthesis of Matrine Derivatives as Novel Anti-Pulmonary Fibrotic Agents via Repression of the TGFβ/Smad Pathway” (Molecules, 2019).
